Patent US8710098B2, “Group of amino substituted benzoyl derivatives and their preparation and their use” (priority 2008, dated 2014)

What follows are compounds tested against T1, hA3G degradation mediated by HIV-1 Vif (UniProt P69723+Q9HC16) (assay: Screening experiment for up-regulation activity to hA3G (YFP-fused hA3G co-expressed with HIV-1 Vif, fluorescence)). Settings: YFP fluorescence of cells co-expressing Vif and hA3G-YFP; excitation 485 nm, detection 520 nm; averages of duplicates.
T1 construct: expressed in transfected cells
T1 sequence (P69723 whole entry, the tested form may be a part): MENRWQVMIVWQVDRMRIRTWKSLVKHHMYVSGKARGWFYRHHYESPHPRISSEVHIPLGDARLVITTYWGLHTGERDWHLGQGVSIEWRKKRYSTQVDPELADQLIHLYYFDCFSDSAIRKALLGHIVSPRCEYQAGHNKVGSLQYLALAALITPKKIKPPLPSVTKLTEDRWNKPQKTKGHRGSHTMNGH
T1 sequence (Q9HC16 whole entry, the tested form may be a part): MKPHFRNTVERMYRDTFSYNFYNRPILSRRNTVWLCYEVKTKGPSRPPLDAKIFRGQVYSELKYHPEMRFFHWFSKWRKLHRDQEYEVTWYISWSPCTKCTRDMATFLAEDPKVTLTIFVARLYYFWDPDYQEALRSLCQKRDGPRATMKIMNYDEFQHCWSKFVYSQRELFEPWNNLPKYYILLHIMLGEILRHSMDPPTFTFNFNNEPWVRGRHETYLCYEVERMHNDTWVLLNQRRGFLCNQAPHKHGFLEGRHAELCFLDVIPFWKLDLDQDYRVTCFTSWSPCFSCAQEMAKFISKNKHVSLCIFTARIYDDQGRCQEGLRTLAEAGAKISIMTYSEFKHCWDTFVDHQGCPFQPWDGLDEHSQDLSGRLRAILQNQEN
Format: cell-based, human
Excerpt: Based on the advances making research on the hA3G degradation mediated by HIV-1 Vif, this invention establishes a high throughput anti-HIV-1 drug screening model using hA3G degradation mediated by HIV-1 Vif as target, to screen small molecule active compounds capable of inhibiting this degradation process. The function principle of this model is that HIV-1 Vif protein and hA3G fused yellow fluorescent protein (YFP) co-expressed in the cells, then the intracellular fluorescence intensity (at […]) decreases owing to the degradation of hA3G caused by Vif and subsequent degradation of YEP fused on hA3G. By means of measuring the change of fluorescent intensity, the influence of the screened compounds on the degradation of hA3G caused by Vif can quantitatively be analyzed. Simultaneously, to differentiate the non-specific inhibitory effect of diverse ubiquitin degradation route in the samples, this invention establishes a recheck model based on the detection of P53 degradation caused by the product of adenovirus early gene, to assure that the positive samples screened out by the proposed model can specifically block the degradation of hA3G caused by Vif.
Screening Experiment for Up-Regulation Activity to hA3G
The cells are picked up and cultured a culture bottle. When the cells grow full of the culture bottle, old culture medium is discarded and the cells are digested with digestion medium. When the cells turn round, the digestion medium is discarded and the culture medium is added in at once, the bottom of the bottle is gently blown with a pipette to make the cells disengage the bottle bottom and disperse into single cell suspension. After counting the cells using blood cell counting chamber, the cell suspension is inoculated into a culture dish for transfection. The medium containing the plasmid to be transfected and the transfection reagents is gently mixed up and incubated at room temperature. The medium is then added into the supernatant of the cell culture and cultured for a certain period of time. The old culture medium is then sucked out, the cells are digested with digestive medium, the digestive medium is subsequently discarded and culture medium is immediately added. The medium is gently blown to disperse the cells into single cell suspension. After counting the cells using blood cell counting chamber, the cells are ready for inoculation.
Samples of compounds[…]Pure tested compounds are dissolved in DMSO, the solution is diluted with equal proportional distilled water. The diluent is used to test the cell systems.
Sample solution of different concentration is added into the supernatant of a cell culture. After the cells are continuously cultured, old culture medium is sucked out and the cells are blown with PBS buffer until the cells completely disengage from the culture bottle.
The fluorescence intensity values of the cell suspension with test compound samples, positive control samples and negative control samples are respectively measured with fluorometer, the excitation wavelength is 485 nm and the detection wavelength 520 nm. Averages of duplicated measurements are taken as the results.
The measured fluorescence intensity values of the negative control samples (blink sample) subtracted from those of test compound samples, the results are taken as YFP fluorescence of different groups. Relative fluorescence intensity=fluorescence intensity of a test sample group/fluorescence intensity of the positive control group×100% Inhibition rate of degradation=(test sample group−negative control group)/(positive control group−negative control group)×100%

First: COc1ccc(C(=O)Nc2cc(OC)c(OC)c(OC)c2)cc1NC(=O)CBr [Compound 29]
Second: COc1ccc(C(=O)Nc2cc(OC)c(OC)c(OC)c2)cc1NC(=O)CF [Compound 17]
The “hA3G up-regulation activity (%)” value of the first is lower: 25.3% for the first, 31.1% for the second.

First: CCC(=O)Nc1cc(C(=O)Nc2ccc(OC)c(S(N)(=O)=O)c2)ccc1OC [Compound 97]
Second: CCC(=O)Nc1cc(C(=O)Nc2ccc(S(N)(=O)=O)c(OC)c2)ccc1OC [Compound 99]
The “hA3G up-regulation activity (%)” value of the first is lower: 6.4% for the first, 23.6% for the second.

First: COc1cc(NC(=O)c2cc(NC(C)=O)cc(C(F)(F)F)c2)cc(OC)c1OC [Compound 74]
Second: COc1cc(OC(=O)c2cc(NC(C)=O)cc(C(F)(F)F)c2)cc(OC)c1OC [Compound 73, 3′,4′,5′-trimethoxyphenyl 3-acetamido-5-trifluoromethylbenzoate]
The “hA3G up-regulation activity (%)” value of the first is lower: 8.5% for the first, 29.0% for the second.

Going from `CCC(=O)Nc1cc(C(O)Cc2cc(OC)c(OC)c(OC)c2)ccc1OC` (stereo not shown) [Compound 32, 1-(3′-propionamido-4′-methoxyphenyl)-2-(3″,4″,5″-trimethoxyphenyl)ethanol] to `CCC(=O)Nc1cc(C(=O)Cc2cc(OC)c(OC)c(OC)c2)ccc1OC` [Compound 10, 1′-(3-propionamido-4-methoxy-benzoyl)methylene-3′,4′,5′-trimethoxybenzene], the “hA3G up-regulation activity (%)” value rises from 17.6% to 28.9%.

Compared with `COc1ccc(S(=O)(=O)Nc2cc(OC)c(OC)c(OC)c2)cc1O` [Compound 90], `COc1ccc(C(=O)Nc2cc(OC)c(OC)c(OC)c2)cc1O` [Compound 87, N-(3′,4′,5′-trimethoxyphenyl)-3-hydroxyl-4-methoxybenzamide] is lower in “hA3G up-regulation activity (%)” value: 28.2% for the first, 19.7% for the second.

First: CCC(=O)Nc1cc(S(=O)(=O)Nc2cc(OC)nc(OC)n2)ccc1OC [Compound 93]
Second: CCC(=O)Nc1cc(NS(=O)(=O)c2cc(OC)nc(OC)n2)ccc1OC [Compound 92]
The “hA3G up-regulation activity (%)” value of the first is higher: 34.2% for the first, 23.7% for the second.

First: COc1ccc(C(=O)Nc2cc(OC)c(OC)c(OC)c2)cc1NC(C)=O [Compound 11]
Second: COc1ccc(C(=O)Nc2cc(OC)c(OC)c(OC)c2)cc1NC(=O)C(C)Cl (stereo not shown) [Compound 14]
The “hA3G up-regulation activity (%)” value of the first is higher: 22.2% for the first, 11.2% for the second.

Compared with `COc1ccc(C(=O)Sc2cc(OC)c(OC)c(OC)c2)cc1NC(=O)CF` [Compound 19], `CCC(=O)Nc1cc(C(=O)Sc2cc(OC)c(OC)c(OC)c2)ccc1OC` [Compound 9, S-(3′,4′,5′-trimethoxyphenyl) 3-propionamido-4-methoxybenzenecarbothiolate] is higher in “hA3G up-regulation activity (%)” value: 44.3% for the first, 46.5% for the second.

Compared with `CCC(=O)Nc1cc(C(=O)Nc2ccc(OC)c(F)c2)ccc1OC` [Compound 78], `CCC(=O)Nc1cc(C(=O)Nc2cccc(OC)c2)ccc1OC` [Compound 46] is higher in “hA3G up-regulation activity (%)” value: 8.8% for the first, 29.1% for the second.

Going from `CCC(=O)Nc1cc(NNc2cc(OC)c(OC)c(OC)c2)ccc1OC` [Compound 89] to `CCC(=O)Nc1cc(NS(=O)(=O)c2cc(OC)c(OC)c(OC)c2)ccc1OC` [Compound 91, N-(3′-propionamido-4′-methoxyphenyl)-(3,4,5-trimethoxy)benzenesulfonamide], the “hA3G up-regulation activity (%)” value falls from 31.3% to 16.6%.

First: CCC(=O)Nc1cc(OC)ccc1C(=O)Nc1cc(OC)c(OC)c(OC)c1 [Compound 63, N-(3′,4′,5′-trimethoxyphenyl)-2-propionamido-4-methoxybenzamide]
Second: CCC(=O)Nc1ccc(C(=O)Nc2cc(OC)c(OC)c(OC)c2)cc1OC [Compound 64, N-(3′,4′,5′-trimethoxyphenyl)-3-methoxy-4-propionamidobenzamide]
The “hA3G up-regulation activity (%)” value of the first is higher: 21.3% for the first, 11.7% for the second.

Compared with `CCC(=O)Nc1cc(OC(=O)c2cc(OC)c(OC)c(OC)c2)ccc1OC` [Compound 62], `COc1ccc(C(=O)Oc2cc(OC)c(OC)c(OC)c2)cc1NC(=O)CBr` [Compound 30] is lower in “hA3G up-regulation activity (%)” value: 40.1% for the first, 15.2% for the second.

Going from `CCNc1cc(C(=O)Nc2ccc(OC)cc2)ccc1OC` [Compound 42] to `COc1ccc(NC(=O)c2ccc(OC)c(NC(C)C)c2)cc1` [Compound 43], the “hA3G up-regulation activity (%)” value falls from 34.3% to 26.4%.

Compared with `COc1ccc(C(=O)Oc2cc(OC)c(OC)c(OC)c2)cc1N` [Compound 4], `COc1ccc(C(=O)Cc2cc(OC)c(OC)c(OC)c2)cc1N` [Compound 6] is higher in “hA3G up-regulation activity (%)” value: 1.6% for the first, 28.7% for the second.

Going from `CCC(=O)Nc1cc(C(=O)Nc2ccc(OC(F)(F)F)cc2)ccc1C` [Compound 69, N-(4′-trifluoromethoxyphenyl)-3-propionamido-4-methylbenzamide] to `CCC(=O)Nc1cc(C(=O)Nc2ccc(OC(F)(F)F)cc2)ccc1F` [Compound 70], the “hA3G up-regulation activity (%)” value falls from 31.2% to 24.7%.

Going from `COc1ccc(C(=O)Cc2cc(OC)c(OC)c(OC)c2)cc1NC(=O)C(C)F` (stereo not shown) [Compound 25, 3-(2″-fluoropropionamido)-4-methoxybenzoylmethylene-3′,4′,5′-trimethoxybenzene] to `COc1ccc(C(=O)Cc2cc(OC)c(OC)c(OC)c2)cc1NC(C)=O` [Compound 13], the “hA3G up-regulation activity (%)” value rises from 19.4% to 42.1%.

Going from `COc1cc(OC(=O)c2cc(Cl)cc(NC(C)=O)c2)cc(OC)c1OC` [Compound 72] to `COc1ccc(C(=O)Oc2cc(OC)c(OC)c(OC)c2)cc1NC(=O)CF` [Compound 18], the “hA3G up-regulation activity (%)” value rises from 24.3% to 34.5%.

First: COc1ccc(C(=O)Sc2cc(OC)c(OC)c(OC)c2)cc1NC(=O)C(C)F (stereo not drawn) [Compound 21, S-(3′,4′,5′-trimethoxyphenyl)-3-(2-fluoropropionamido)-4-methoxybenzenecarbothiolate]
Second: COc1ccc(C(=O)Sc2cc(OC)c(OC)c(OC)c2)cc1NC(=O)C(C)Cl (stereo not shown) [Compound 15]
The “hA3G up-regulation activity (%)” value of the first is higher: 21.1% for the first, 19.4% for the second.

Compared with `CNc1cc(CNc2cc(OC)c(OC)c(OC)c2)ccc1OC` [Compound 45], `COc1ccc(C(=O)Nc2cc(OC)c(OC)c(OC)c2)cc1NS(C)(=O)=O` [Compound 101] is lower in “hA3G up-regulation activity (%)” value: 27.6% for the first, 22.1% for the second.

Going from `CCNc1cc(C(=O)Nc2ccc(OC)cc2)ccc1OC` [Compound 37] to `CCC(=O)Nc1cc(C(=O)Nc2ccc(OC(F)(F)F)cc2)ccc1OC` [Compound 67], the “hA3G up-regulation activity (%)” value rises from 7.7% to 11.3%.

Going from `CCC(=O)Nc1cc(C(=O)Nc2cc(OC)c(OC)c(OC)c2)c(F)cc1OC` [Compound 79, N-(3′,4′,5′-trimethoxyphenyl)-3-propionamido-4-methoxy-6-fluorobenzamide] to `COc1ccc(C(=O)Nc2cc(OC)c(OC)c(OC)c2)cc1NC(=O)C(C)F` (stereo not shown) [Compound 23], the “hA3G up-regulation activity (%)” value rises from 21.6% to 29.3%.

First: CCC(=O)Nc1cc(S(=O)(=O)Nc2ccc(OC)c(OC)c2)ccc1OC [Compound 94]
Second: CCC(=O)Nc1cc(S(=O)(=O)Nc2ccc(OC)c(OC)c2)cc(F)c1OC [Compound 95]
The “hA3G up-regulation activity (%)” value of the first is higher: 16.1% for the first, 8.7% for the second.

Going from `CCC(=O)Nc1cc(C(=O)Nc2cccc(O)c2)ccc1OC` [Compound 50] to `CCC(=O)Nc1cc(C(=O)Nc2ccccc2)ccc1OC` [Compound 60], the “hA3G up-regulation activity (%)” value rises from −3.1% to 16.3%.

First: COc1ccc(C(=O)Nc2ccc(OC)c(OC)c2)cc1NS(C)(=O)=O [Compound 102]
Second: CCC(=O)Nc1cc(C(=O)Nc2cc(OC)c(O)c(OC)c2)ccc1OC [Compound 58]
The “hA3G up-regulation activity (%)” value of the first is lower: 10.3% for the first, 16.6% for the second.

Compared with `COc1ccc(C(=O)Oc2cc(OC)c(OC)c(OC)c2)cc1NC(=O)C(C)F` (stereo not shown) [Compound 24], `CCC(=O)Oc1cc(C(=O)Nc2cc(OC)c(OC)c(OC)c2)ccc1OC` [Compound 86] is higher in “hA3G up-regulation activity (%)” value: 18.6% for the first, 20.3% for the second.

First: COc1cc(NC(=O)c2ccc(OC)c(N(C)C)c2)cc(OC)c1 [Compound 41]
Second: COc1ccc(C(=O)Nc2cc(OC)c(OC)c(OC)c2)cc1C#N [Compound 68, N-(3′,4′,5′-trimethoxyphenyl)-3-cyano-4-methoxybenzamide]
The “hA3G up-regulation activity (%)” value of the first is higher: 21.8% for the first, 9.8% for the second.
